This is an account of results in patent publication EP4722213A1, “NITROGEN-CONTAINING FUNCTIONAL GROUP-SUBSTITUTED PYRIDAZINOPYRIDONE DERIVATIVE AND USE THEREOF” (Sichuan Huiyu Pharmaceutical Co., Ltd., priority 2023, dated 2024).

Structures can show the parent of a compound that is named as a salt.

Assay [1] concerns NCI-H358 non-small cell lung cancer cells. As to the kind of experiment: Inhibition of NCI-H358 cell proliferation (CellTiter-Glo 3D, 7 days). Conditions: Homo sapiens, NCI-H358, 168 h, 3D microspheres, read-out: Inhibitory activity against NCI-H358 cell proliferation (IC50). In kind it is cell-based. Here is the method: The number of viable cells were detected by CellTiter-Glo 3D® reagent, thereby evaluating the inhibitory effect of compounds on cell proliferation. NCI-H358 non-small cell lung cancer cells (Nanjing cobioer) in the exponential growth phase were digested with trypsin-EDTA, and seeded into 96-well ultra-low attachment microplates at 100 µL per well with a density of 2000 cells/well. The cells were cultured overnight at 37°C with 5% CO2 to form microspheres. The test compounds were serially diluted 5-fold with DMSO to obtain 8 concentration gradient dilutions, then diluted with RPMI-1640 (10% FBS) cell culture medium respectively to obtain compound working solutions (2×). 100 µL per well was added to the cell supernatant, and the culture was continued for 7 days under the conditions of 37°C and 5% CO2. The well plate was removed, and 100 µL of CellTiter-Glo 3D® reagent was added. After lysis at room temperature for 10-30 minutes, 70 µL of the lysate was aspirated and transferred to a white opaque 384-well plate.
The inhibition rate was calculated by the following formula: [formula] Note: The negative control refers to the group without inhibitor, and the blank refers to the group without cells.
The inhibitory activities of some Example compounds and comparative compounds against NCI-H358 cell proliferation are shown in Table 2. Table 2. Inhibitory activity of some Example compounds against NCI-H358 cell proliferation

In assay [2] the target is T1, SOS1 (Homo sapiens, UniProt Q07889).
T1 sequence (Q07889 1-1333): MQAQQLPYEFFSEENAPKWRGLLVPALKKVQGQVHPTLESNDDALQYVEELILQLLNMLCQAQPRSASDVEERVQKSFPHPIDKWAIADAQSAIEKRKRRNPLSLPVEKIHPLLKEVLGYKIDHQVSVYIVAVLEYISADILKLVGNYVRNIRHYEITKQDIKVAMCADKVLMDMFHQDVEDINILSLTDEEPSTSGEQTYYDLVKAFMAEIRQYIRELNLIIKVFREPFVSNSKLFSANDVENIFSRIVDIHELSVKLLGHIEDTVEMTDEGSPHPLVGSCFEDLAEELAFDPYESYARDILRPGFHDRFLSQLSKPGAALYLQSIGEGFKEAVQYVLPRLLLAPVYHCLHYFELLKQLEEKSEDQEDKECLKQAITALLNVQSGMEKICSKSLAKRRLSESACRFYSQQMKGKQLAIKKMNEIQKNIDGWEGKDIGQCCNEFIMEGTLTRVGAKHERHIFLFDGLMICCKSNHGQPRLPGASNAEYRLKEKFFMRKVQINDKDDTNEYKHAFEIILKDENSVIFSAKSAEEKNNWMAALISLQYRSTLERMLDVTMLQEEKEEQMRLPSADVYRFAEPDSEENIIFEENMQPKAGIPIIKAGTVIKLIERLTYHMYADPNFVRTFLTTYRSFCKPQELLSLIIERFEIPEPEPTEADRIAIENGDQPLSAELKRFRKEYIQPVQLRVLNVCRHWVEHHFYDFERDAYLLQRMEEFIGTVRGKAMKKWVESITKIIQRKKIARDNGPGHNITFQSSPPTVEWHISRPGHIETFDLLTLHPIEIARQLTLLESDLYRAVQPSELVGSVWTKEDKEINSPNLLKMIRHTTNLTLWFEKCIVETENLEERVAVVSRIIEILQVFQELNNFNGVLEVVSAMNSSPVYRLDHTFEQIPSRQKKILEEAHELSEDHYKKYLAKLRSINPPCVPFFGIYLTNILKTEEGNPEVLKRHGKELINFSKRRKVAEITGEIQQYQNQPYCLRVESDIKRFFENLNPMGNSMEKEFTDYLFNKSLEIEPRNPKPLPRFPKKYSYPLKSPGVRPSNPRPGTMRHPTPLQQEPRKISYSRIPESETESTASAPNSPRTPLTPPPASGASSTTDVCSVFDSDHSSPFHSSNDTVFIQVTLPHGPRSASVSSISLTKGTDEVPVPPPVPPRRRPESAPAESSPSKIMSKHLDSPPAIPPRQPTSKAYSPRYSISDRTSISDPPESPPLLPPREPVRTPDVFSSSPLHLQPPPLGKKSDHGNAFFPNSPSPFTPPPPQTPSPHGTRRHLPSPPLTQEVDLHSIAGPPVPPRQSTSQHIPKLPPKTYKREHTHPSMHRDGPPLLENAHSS
As to the kind of experiment: biochemical.

Take `C[C@@H](Nc1nnc(N2CCCC2)c2cc(=O)n(C3(C)CC3)cc12)c1cccc(C(F)F)c1F` [Example 5, (R)-4-((1-(3-(difluoromethyl)-2-fluorophenyl)ethyl)amino)-6-(1-methylcyclopropyl)-1-(pyrrolidin-1-yl)pyrido[3,4-d]pyridazin-7(6H)-one]: the values for the IC50 in assay [1] and in assay [2] were 50.1 nM and 4.7 nM, respectively.
For `C[C@@H](Nc1nnc(N2CCC2)c2cc(=O)n(C3(C)CC3)cc12)c1cccc(C(F)F)c1F` [Example 16, (R)-1-(azetidin-1-yl)-4-((1-(3-(difluoromethyl)-2-fluorophenyl)ethyl)amino)-6-(1-methylcyclopropyl) pyrido[3,4-d]pyridazin-7(6H)-one formate] the same measures were 57.8 nM and 4.1 nM.
On the same counts, the results for `Cc1c([C@@H](C)Nc2nnc(N3CCCC3)c3cc(=O)n(C4CC4)cc23)cccc1C(F)(F)F` [Example 49, (R)-6-cyclopropyl-4-((1-(2-methyl-3-(trifluoromethyl)phenyl)ethyl)amino)-1-(pyrrolidin-1-yl) pyrido[3,4-d]pyridazin-7(6H)-one] are 55.1 nM and 6 nM.
For `Cc1c([C@@H](C)Nc2nnc(N3CCCC3)c3cc(=O)n(C4(C)CC4)cc23)cccc1C(F)(F)F` [Example 61, (R)-4-((1-(2-methyl-3-(trifluoromethyl)phenyl)ethyl)amino)-6-(1-methylcyclopropyl)-1-(pyrrolidin-1-yl)pyrido[3,4-d]pyridazin-7(6H)-one], the IC50 stood at 31.8 nM in assay [1] and 6.1 nM in assay [2].
As for `Cc1c([C@@H](C)Nc2nnc(N3CCN(C)CC3)c3cc(=O)n(C4(C)CC4)cc23)cccc1C(F)(F)F` [Example 81, (R)-4-((1-(2-methyl-3-(trifluoromethyl)phenyl)ethyl)amino)-6-(1-methylcyclopropyl)-1-(4-methylpiperazin-1-yl)pyrido[3,4-d]pyridazin-7(6H)-one], the IC50 in assay [1] was found to be 65.3 nM; in assay [2] it was 6.3 nM.
For `C[C@@H](Nc1nnc(N2CCN(C)CC2)c2cc(=O)n(C3CC3)cc12)c1cccc(S(F)(F)(F)(F)F)c1` [Example 89, (R)-6-cyclopropyl-1-(4-methylpiperazin-1-yl)-4-((1-(3-(pentafluoro-λ^6-sulfaneyl)phenyl)ethyl)amino)pyrido[3,4-d]pyridazin-7(6H)-one] the same measures were 58.6 nM and 4.1 nM.
On the same counts, the results for `CCNc1nnc(N[C@H](C)c2cccc(C(F)F)c2F)c2cn(C3(C)CC3)c(=O)cc12` [Example 105, (R)-4-((1-(3-(difluoromethyl)-2-fluorophenyl)ethyl)amino)-1-(ethylamino)-6-(1-methylcyclopropyl) pyrido[3,4-d]pyridazin-7(6H)-one] are 58.1 nM and 4.7 nM.
For `C[C@@H](Nc1nnc(NC2CCOC2)c2cc(=O)n(C3(C)CC3)cc12)c1cccc(C(F)F)c1F` (stereo partly drawn) [Example 119, 4-(((R)-1-(3-(difluoromethyl)-2-fluorophenyl)ethyl)amino)-6-(1-methylcyclopropyl)-1-((tetrahydrofuran-3-yl)amino)pyrido[3,4-d]pyridazin-7(6H)-one formate] the same measures were 59.1 nM and 4.3 nM.
With `CC1CN(c2nnc(N[C@H](C)c3cccc(C(F)F)c3F)c3cn(C4(C)CC4)c(=O)cc23)C1` [Example 130, (R)-4-((1-(3-(difluoromethyl)-2-fluorophenyl)ethyl)amino)-1-(3-methylazetidin-1-yl)-6-(1-methylcyclopropyl) pyrido[3,4-d]pyridazin-7(6H)-one], the results for the IC50 in assay [1] and in assay [2] were 47.8 nM and 3.4 nM, respectively.
On the same counts, the results for `C[C@@H](Nc1nnc(N2CCN(C)CC2)c2cc(=O)n(N3CCN(C)CC3)cc12)c1cccc(C(F)F)c1F` [Example 151, (R)-4-((1-(3-(difluoromethyl)-2-fluorophenyl)ethyl)amino)-1,6-bis(4-methylpiperazin-1-yl)pyrido[3,4-d]pyridazin-7(6H)-one] are 39.4 nM and 3.8 nM.
On the same counts, the results for `CCN1CCN(c2nnc(N[C@H](C)c3cccc(C(F)(F)F)c3)c3cn(C4(C)CC4)c(=O)cc23)CC1` [Example 156, (R)-1-(4-ethylpiperazin-1-yl)-6-(1-methylcyclopropyl)-4-((1-(3-(trifluoromethyl)phenyl)ethyl)amino)pyr ido[3,4-d]pyridazin-7(6H)-one formate] are 47.4 nM and 5.4 nM.
On the same counts, the results for `C[C@@H](Nc1nnc(N2CCN(C)CC2)c2cc(=O)n(C3(C)CC3)cc12)c1cccc(C(F)(F)F)c1` [Example 157, (R)-1-(4-methylpiperazin-1-yl)-6-(1-methylcyclopropyl)-4-((1-(3-(trifluoromethyl)phenyl)ethyl)amino)pyr ido[3,4-d]pyridazin-7(6H)-one formate] are 52.2 nM and 5.1 nM.
Regarding `C[C@@H](Nc1nnc(N2CCN(C)CC2)c2cc(=O)n(C3(C)CC3)cc12)c1cccc(C(F)(F)F)c1F` [Example 164, (R)-4-((1-(2-fluoro-3-(trifluoromethyl)phenyl)ethyl)amino)-6-(1-methylcyclopropyl)-1-(4-methylpiperazin-1-yl)pyrido[3,4-d]pyridazin-7(6H)-one], the IC50 is 32.8 nM in assay [1] and 4.2 nM in assay [2].
For `CCN1CCN(c2nnc(N[C@H](C)c3cccc(C(F)(F)F)c3F)c3cn(C4(C)CC4)c(=O)cc23)CC1` [Example 168, (R)-1-(4-ethylpiperazin-1-yl)-4-((1-(2-fluoro-3-(trifluoromethyl)phenyl)ethyl)amino)-6-(1-methylcyclopropyl) pyrido[3,4-d]pyridazin-7(6H)-one formate] the same measures were 35.5 nM and 4.1 nM.
On the same counts, the results for `C[C@@H]1CN(c2nnc(N[C@H](C)c3cccc(C(F)(F)F)c3)c3cn(C4(C)CC4)c(=O)cc23)CCN1C` [Example 176, 1-((R)-3,4-dimethylpiperazin-1-yl)-6-(1-methylcyclopropyl)-4-(((R)-1-(3-(trifluoromethyl)phenyl)ethyl)amino)pyr ido[3,4-d]pyridazin-7(6H)-one formate] are 32.3 nM and 6 nM.
On to `C[C@@H](Nc1nnc(N2CC3(CCC3)C2)c2cc(=O)n(C3(C)CC3)cc12)c1cccc(C(F)F)c1F` [Example 191, (R)-4-((1-(3-(difluoromethyl)-2-fluorophenyl)ethyl)amino)-6-(1-methylcyclopropyl)-1-(2-azaspiro[3.3]heptan-2-yl)pyrido[3,4-d]pyridazin-7(6H)-one], for which the IC50 in assay [1] stood at 39.3 nM; in assay [2] it was 4.5 nM.
On the same counts, the results for `C[C@@H](Nc1nnc(N2CCN3CCCC3C2)c2cc(=O)n(C3(C)CC3)cc12)c1cccc(C(F)F)c1F` (stereo partly drawn) [Example 192, 4-(((R)-1-(3-(difluoromethyl)-2-fluorophenyl)ethyl)amino)-1-(hexahydropyrrolo[1,2-a]pyrazin-2(1H)-yl)-6-(1-methylcyclopropyl) pyrido[3,4-d]pyridazin-7(6H)-one] are 28.8 nM and 3.8 nM.
